Results: publication PMC3038857, “Using Nuclear Receptor Activity to Stratify Hepatocarcinogens” (PLoS ONE, 2011)
Like-named read-outs stand apart in the source and are kept apart here.

Experiments:
[1] = molecular target: T1, PPARg (PPARG) (Homo sapiens, UniProt P37231); assay: NVS_NR_hPPARg: Human PPARg Fluorescent Ligand (cell-free HTS); assay type: binding
T1 sequence (P37231 1-505): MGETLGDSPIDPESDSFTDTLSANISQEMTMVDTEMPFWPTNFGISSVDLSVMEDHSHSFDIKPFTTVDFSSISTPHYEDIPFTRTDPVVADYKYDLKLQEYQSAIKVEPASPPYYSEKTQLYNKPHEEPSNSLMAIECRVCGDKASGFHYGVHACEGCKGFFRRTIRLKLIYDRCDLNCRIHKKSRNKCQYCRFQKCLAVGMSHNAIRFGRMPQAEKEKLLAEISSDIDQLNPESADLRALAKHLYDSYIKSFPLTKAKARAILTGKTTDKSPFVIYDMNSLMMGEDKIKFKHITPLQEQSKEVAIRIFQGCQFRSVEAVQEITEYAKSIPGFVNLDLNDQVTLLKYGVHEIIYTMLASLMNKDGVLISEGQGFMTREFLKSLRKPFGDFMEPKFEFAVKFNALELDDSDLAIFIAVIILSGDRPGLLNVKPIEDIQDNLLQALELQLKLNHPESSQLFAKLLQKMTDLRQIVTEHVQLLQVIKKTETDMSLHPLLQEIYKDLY
Source text: These are a collection of biochemical assays measuring binding constants and enzyme inhibition values. Chemicals were initially screened at a single concentration in duplicate wells at a concentration of 10 [drawing 63] M for cytochrome P-450 assays and 25 [drawing 64] M for all others. […] These assays were run by Caliper Life Sciences (Hanover, MD) under contract to EPA. Short assay descriptions are available at: http://www.caliperls.com/products/contract-research/in-vitro/.
Cell-free HTS Assays: A collection of biochemical assays measuring binding constants and enzyme inhibition values. […] These assays were run by Caliper Life Sciences (Hanover, MD) under contract to EPA. Short assay descriptions are available at http://www.caliperls.com/products/contract-research/in-vitro/. Values for all endpoints were imported into GeneData Screener (Basel, Switzerland) and normalised to solvent controls from the same plate as the tested compounds and expressed as percent of neutral control. Concentration-response curves were fit in GeneData Screener (Basel, Switzerland) Condeseo module using the Hill equation and AC50 values were determined. […] Detailed description of the methods, data and analysis methods for this dataset are described in a separate publication.

[2] = molecular target: T2, ERa (ESR1) (Homo sapiens, UniProt P03372); assay: NCGC_ERalpha_Agonist: GAL4 BLAM Reporter gene assay: ERa; assay type: cell-based; conditions: agonist mode; scale not given, looks like -log10 of molar active concentration; 0 = no activity
T2 construct: expressed in transfected cells; host or cells: HEK293
Experimental: (§1) These assays measure binding constants and enzyme inhibition values for nuclear receptors. The targets include [drawing 67] , [drawing 68] , [drawing 69] , [drawing 70] , [drawing 71] , [drawing 72] , [drawing 73] , [drawing 74] , [drawing 75] and [drawing 76] . Each of the nuclear receptor targets was measured in agonist mode. Assays were run at the NIH Chemical Genomics Center (Rockville, MD).
(§2) Cell-based HTS Assays: These assays measuring binding constants and enzyme inhibition values for nuclear receptors. The targets include AR, ER, FXR, LXR, PPARα, PPARδ, PPARγ, RXRα, RXRβ and PXR. Each of the nuclear receptor targets was measured in both agonist and antagonist mode, but the antagonist data is still undergoing analysis due to possible interference between cytotoxicity and assay activity, so antagonist mode data were not used in the present analysis. Assays were run at the NIH Chemical Genomics Center (Rockville, MD) as part of the Tox21 collaboration. […] The R^2 was required to be ≥0.5. Values where only the highest concentration exceeded 50% activity were excluded to eliminate weak or false positives. Detailed description of the methods, data and analysis methods for this dataset will be presented in a separate publication.

[3] = molecular target: T1, PPARg (PPARG); assay: NCGC_PPARg_Agonist: GAL4 BLAM Reporter gene assay: PPARg; assay type: cell-based; design: expressed in transfected cells; host or cells: HEK293; conditions: agonist mode; scale not given, looks like -log10 of molar active concentration; 0 = no activity
Experimental: as §1, §2

[4] = system: Mouse Liver; conditions: ref ToxRefDB, cited from earlier work
[5] = molecular target: T3, ESRRG (estrogen-related receptor gamma) (Homo sapiens, UniProt P62508); assay: ATG_ERRg_TRANS: Factorial reporter gene assay (HepG2); assay type: cell-based; design: scale not given here
T3 construct: expressed in transfected cells; host or cells: HepG2
T3 sequence (P62508 1-458): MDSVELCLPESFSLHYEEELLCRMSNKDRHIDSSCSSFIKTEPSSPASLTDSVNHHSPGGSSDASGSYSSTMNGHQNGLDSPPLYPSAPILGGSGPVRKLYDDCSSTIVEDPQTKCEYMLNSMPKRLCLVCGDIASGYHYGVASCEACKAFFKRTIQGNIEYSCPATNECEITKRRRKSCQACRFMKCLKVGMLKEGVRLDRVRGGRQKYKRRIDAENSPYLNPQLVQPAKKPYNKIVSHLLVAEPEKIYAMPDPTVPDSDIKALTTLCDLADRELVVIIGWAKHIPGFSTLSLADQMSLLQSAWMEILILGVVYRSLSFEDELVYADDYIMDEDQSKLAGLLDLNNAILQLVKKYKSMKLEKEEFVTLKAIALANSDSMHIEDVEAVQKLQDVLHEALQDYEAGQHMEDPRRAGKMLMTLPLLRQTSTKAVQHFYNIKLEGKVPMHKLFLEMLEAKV
Experimental: A multiple reporter transcription unit (MRTU) library consisting of 48 transcription factor binding sites was transfected into the HepG2 human liver hepatoma cell line. In addition to the cis-acting reporter genes (CIS), a modification of the approach was used to generate a trans-system (TRANS) with a mammalian one-hybrid assay consisting of an additional 25 MRTU library reporting the activity of nuclear receptor super-family members. […] These assays were performed by Attagene Inc. (Morrisville NC) under contract to EPA.
In addition to the cis-acting reporter genes (CIS), a modification of the approach was used to generate a trans-system (TRANS) with a mammalian one-hybrid assay consisting of an additional 25 MRTU library reporting the activity of nuclear receptor super-family members. […] Chemicals were then tested in the CIS and TRANS assays at seven concentrations starting at the MTC and followed by three-fold serial dilutions. These assays were performed by Attagene Inc. (Morrisville NC) under contract to EPA. Detailed description of the methods, data and analysis methods for this dataset will be presented in a separate publication.

[6] = scale not given, looks like -log10 of molar active concentration, 0 = no activity
[7] = mouse chronic study, liver, any lesion, coded 6 / Inf / 0, code not explained here
[8] = HepG2, scale not given, looks like -log10 of molar active concentration, 0 = no activity

T2 sequence (P03372 whole entry, the tested form may be a part): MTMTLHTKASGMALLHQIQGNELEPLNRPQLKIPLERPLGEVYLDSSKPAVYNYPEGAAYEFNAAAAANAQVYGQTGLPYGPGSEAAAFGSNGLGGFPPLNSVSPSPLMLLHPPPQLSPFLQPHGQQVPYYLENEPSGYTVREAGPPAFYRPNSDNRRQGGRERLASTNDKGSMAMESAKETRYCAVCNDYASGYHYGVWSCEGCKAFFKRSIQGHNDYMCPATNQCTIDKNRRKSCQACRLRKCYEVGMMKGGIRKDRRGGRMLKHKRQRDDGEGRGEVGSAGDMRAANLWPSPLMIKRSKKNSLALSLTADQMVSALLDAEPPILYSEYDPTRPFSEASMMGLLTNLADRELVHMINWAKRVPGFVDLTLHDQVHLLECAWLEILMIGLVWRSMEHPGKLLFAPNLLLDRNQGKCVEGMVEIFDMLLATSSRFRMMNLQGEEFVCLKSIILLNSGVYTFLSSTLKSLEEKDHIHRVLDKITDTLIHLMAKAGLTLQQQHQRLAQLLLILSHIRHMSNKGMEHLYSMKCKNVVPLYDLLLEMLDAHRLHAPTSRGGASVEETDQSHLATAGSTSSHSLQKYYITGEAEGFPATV

Nc1cnn(-c2ccccc2)c(=O)c1Cl [r56]
NVS_NR_hPPARg [1, 6]: 0 | NCGC_ERalpha_Agonist [2]: 0 | NCGC_PPARg_Agonist [3]: 0

CCC(C)n1c(=O)[nH]c(C)c(Br)c1=O (stereo not shown) [r43]
NVS_NR_hPPARg [1, 6]: 0 | CHR_Mouse_Liver_1_AnyLesion [4, 7]: 6 | NCGC_ERalpha_Agonist [2]: 0 | ATG_ERRg_TRANS [5, 8]: 0 | NCGC_PPARg_Agonist [3]: 0

CC(C)OC(=O)Nc1cccc(Cl)c1 [r59]
NVS_NR_hPPARg [1, 6]: 0 | CHR_Mouse_Liver_1_AnyLesion [4, 7]: 6 | NCGC_ERalpha_Agonist [2]: 0 | ATG_ERRg_TRANS [5, 8]: 0 | NCGC_PPARg_Agonist [3]: 0

N#Cc1cc(Br)c(O)c(Br)c1 [r44]
NVS_NR_hPPARg [1, 6]: 0 | CHR_Mouse_Liver_1_AnyLesion [4, 7]: 6 | NCGC_ERalpha_Agonist [2]: 0 | ATG_ERRg_TRANS [5, 8]: 0 | NCGC_PPARg_Agonist [3]: 0

CCCCOCN(C(=O)CCl)c1c(CC)cccc1CC [r46]
NVS_NR_hPPARg [1, 6]: 0 | NCGC_ERalpha_Agonist [2]: 0 | ATG_ERRg_TRANS [5, 8]: 0 | NCGC_PPARg_Agonist [3]: 0

Cc1ccccc1CO[C@@H]1C[C@@]2(C(C)C)CC[C@]1(C)O2 [r64]
NVS_NR_hPPARg [1, 6]: 0 | CHR_Mouse_Liver_1_AnyLesion [4, 7]: 6 | NCGC_PPARg_Agonist [3]: 0

COc1nc(C)nc(NC(=O)NS(=O)(=O)c2ccccc2Cl)n1 [r62]
NVS_NR_hPPARg [1, 6]: 0 | NCGC_ERalpha_Agonist [2]: 0 | ATG_ERRg_TRANS [5, 8]: 0 | NCGC_PPARg_Agonist [3]: 0

CC(C)(c1ccc(O)cc1)c1ccc(O)cc1 [r40]
NVS_NR_hPPARg [1, 6]: 0 | CHR_Mouse_Liver_1_AnyLesion [4, 7]: 6 | NCGC_ERalpha_Agonist [2]: 5.764 | ATG_ERRg_TRANS [5, 8]: 0 | NCGC_PPARg_Agonist [3]: 0

CC(C)N1C(=O)c2ccccc2NS1(=O)=O [r37]
NVS_NR_hPPARg [1, 6]: 0 | CHR_Mouse_Liver_1_AnyLesion [4, 7]: 6 | NCGC_ERalpha_Agonist [2]: 0 | ATG_ERRg_TRANS [5, 8]: 0 | NCGC_PPARg_Agonist [3]: 0

CNC(=O)Oc1cccc2ccccc12 [r52]
CHR_Mouse_Liver_1_AnyLesion [4, 7]: 6 | NCGC_ERalpha_Agonist [2]: 4.543

C#CCC1=C(C)[C@H](OC(=O)[C@H]2[C@H](C=C(C)C)C2(C)C)CC1=O [r249]
CHR_Mouse_Liver_1_AnyLesion ([4]; mouse, chronic study): 6

OB(O)O [r41]
NVS_NR_hPPARg [1, 6]: 0 | NCGC_ERalpha_Agonist [2]: 0 | ATG_ERRg_TRANS [5, 8]: 0 | NCGC_PPARg_Agonist [3]: 0

CCOC(=O)C(Cl)Cc1cc(-n2nc(C)n(C(F)F)c2=O)c(F)cc1Cl (stereo not shown) [r54]
NVS_NR_hPPARg [1, 6]: 0 | CHR_Mouse_Liver_1_AnyLesion [4, 7]: 6 | NCGC_ERalpha_Agonist [2]: 0 | NCGC_PPARg_Agonist [3]: 0

CCCC1COC(Cn2cncn2)(c2ccc(Cl)cc2Cl)O1 (stereo not shown) [r262]
CHR_Mouse_Liver_1_AnyLesion ([4]; mouse, chronic study): 6

O=C(Nc1ccccc1-c1ccc(Cl)cc1)c1cccnc1Cl [r42]
NVS_NR_hPPARg [1, 6]: 0 | CHR_Mouse_Liver_1_AnyLesion [4, 7]: 6 | NCGC_ERalpha_Agonist [2]: 0 | ATG_ERRg_TRANS [5, 8]: 0 | NCGC_PPARg_Agonist [3]: 0

C=CCOC(=O)C(C)(C)OC(=O)c1cc(-n2c(=O)cc(C(F)(F)F)n(C)c2=O)ccc1Cl [r47]
NVS_NR_hPPARg [1, 6]: 0 | CHR_Mouse_Liver_1_AnyLesion [4, 7]: 6 | NCGC_ERalpha_Agonist [2]: 0 | ATG_ERRg_TRANS [5, 8]: 0 | NCGC_PPARg_Agonist [3]: 0

N#Cc1c(Cl)c(Cl)c(Cl)c(C#N)c1Cl [r58]
NVS_NR_hPPARg [1, 6]: 6.265 | NCGC_ERalpha_Agonist [2]: 0 | NCGC_PPARg_Agonist [3]: 0

COC(=O)c1ccccc1CS(=O)(=O)NC(=O)Nc1nc(OC)cc(OC)n1 [r33]
NVS_NR_hPPARg [1, 6]: 0 | NCGC_ERalpha_Agonist [2]: 0 | ATG_ERRg_TRANS [5, 8]: 0 | NCGC_PPARg_Agonist [3]: 0

COc1ccc(-c2ccccc2)cc1NNC(=O)OC(C)C [r38]
NVS_NR_hPPARg [1, 6]: 0 | CHR_Mouse_Liver_1_AnyLesion [4, 7]: 6 | NCGC_ERalpha_Agonist [2]: 0 | ATG_ERRg_TRANS [5, 8]: 4.469 | NCGC_PPARg_Agonist [3]: 0

CCSC(=O)N(CC(C)C)CC(C)C [r49]
NVS_NR_hPPARg [1, 6]: 0 | CHR_Mouse_Liver_1_AnyLesion [4, 7]: 6 | NCGC_ERalpha_Agonist [2]: 0 | ATG_ERRg_TRANS [5, 8]: 0 | NCGC_PPARg_Agonist [3]: 0

COc1cc(Cl)c(OC)cc1Cl [r57]
NVS_NR_hPPARg [1, 6]: 0 | NCGC_ERalpha_Agonist [2]: 0 | ATG_ERRg_TRANS [5, 8]: 0 | NCGC_PPARg_Agonist [3]: 0

CC(C)N1C(=O)N(c2ccccc2)CS/C1=N\C(C)(C)C [r45]
NVS_NR_hPPARg [1, 6]: 0 | CHR_Mouse_Liver_1_AnyLesion [4, 7]: 6 | NCGC_ERalpha_Agonist [2]: 0 | ATG_ERRg_TRANS [5, 8]: 0 | NCGC_PPARg_Agonist [3]: 0

COc1nc(C)nc(NC(=O)NS(=O)(=O)c2ccccc2Cl)n1 [r63]
NVS_NR_hPPARg [1, 6]: 0 | NCGC_ERalpha_Agonist [2]: 0 | ATG_ERRg_TRANS [5, 8]: 0 | NCGC_PPARg_Agonist [3]: 0

CC1=C(C(=O)Nc2ccccc2)SCCO1 [r53]
NVS_NR_hPPARg [1, 6]: 0 | CHR_Mouse_Liver_1_AnyLesion [4, 7]: 6 | NCGC_ERalpha_Agonist [2]: 0 | ATG_ERRg_TRANS [5, 8]: 0 | NCGC_PPARg_Agonist [3]: 0

CC(C)Oc1cc(-n2nc(C(C)(C)C)oc2=O)c(Cl)cc1Cl [row 225]
CHR_Mouse_Liver_1_AnyLesion ([4]; chronic mouse study, liver): 6

CCc1nn(C)c(C(=O)NCc2ccc(C(C)(C)C)cc2)c1Cl [r291]
ATG_ERRg_TRANS ([5]; HepG2 reporter): 5.301

O=C1C2CC=CCC2C(=O)N1SC(Cl)(Cl)Cl (stereo not shown) [r51]
NVS_NR_hPPARg [1, 6]: 0 | NCGC_ERalpha_Agonist [2]: 0 | ATG_ERRg_TRANS [5, 8]: 0 | NCGC_PPARg_Agonist [3]: 0

Cc1c(COC(=O)C2C(/C=C(\Cl)C(F)(F)F)C2(C)C)cccc1-c1ccccc1 (stereo not shown) [r39]
NVS_NR_hPPARg [1, 6]: 0 | CHR_Mouse_Liver_1_AnyLesion [4, 7]: 6 | NCGC_ERalpha_Agonist [2]: 0 | NCGC_PPARg_Agonist [3]: 0

CCC(C)Nc1c([N+](=O)[O-])cc(C(C)(C)C)cc1[N+](=O)[O-] (stereo not shown) [r48]
NVS_NR_hPPARg [1, 6]: 0 | NCGC_ERalpha_Agonist [2]: 0 | ATG_ERRg_TRANS [5, 8]: 0 | NCGC_PPARg_Agonist [3]: 0

CC(C)=CC1C(C(=O)OCc2coc(Cc3ccccc3)c2)C1(C)C (stereo not shown) [r280]
NVS_NR_hPPARg [1]: 4.616 | CHR_Mouse_Liver_1_AnyLesion ([4]; chronic study, mouse liver): 6
